From patent US20260274892A1, “MACROCYCLIC BROAD SPECTRUM ANTIBIOTICS” (RQx Pharmaceuticals, Inc., priority 2017, published 2026)

Tests used:
[1] = test system: Escherichia coli ATCC 25922; experiment: Minimum inhibitory concentration (MIC), CLSI broth micro-dilution, E. coli; type: cell-based; settings: Escherichia coli, ATCC25922, 22 h, Table 6, cation adjusted Mueller Hinton Broth + 0.002% Tween-80, 35° C.
Procedure, shortened: (§1)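 Colonies grown 20 h at 35° C on Trypticase Soy agar (MRSA) or Luria agar (E. coli) were suspended in cation-adjusted Mueller Hinton broth with 0.002% Tween-80. Suspensions were added at OD600 0.0005 to 10-point twofold compound dilutions, then incubated 22 h at 35° C.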

[2] = test system: Methicillin Resistant Staphylococcus aureus strain USA 200; experiment: Minimum inhibitory concentration (MIC), CLSI broth micro-dilution, S. aureus; type: cell-based; settings: Staphylococcus aureus, MRSA / USA200; Table 6; MRSA USA 200; cation adjusted Mueller Hinton Broth + 0.002% Tween-80; 35° C., 22 hours
Procedure, shortened: as §1

CCCCCOC1CCN(c2nc(C)c(C(=O)N[C@@H](CCN)C(=O)N(C)[C@@H]3C(=O)N[C@@H](C)C(=O)N[C@H](C(=O)NCC#N)Cc4ccc(OCCN)c(c4)-c4cc3ccc4OCCN)c(C)n2)CC1 (racemic) [Compound 317, rac-(8S,11S,14S)-3,18-bis(2-aminoethoxy)-N-(cyanomethyl)-11-methyl-14-[methyl-[rac-(2S)-4-amino-2-[[4,6-dimethyl-2-(4-pentoxy-1-piperidyl)pyrimidine-5-carbonyl]amino]butanoyl]amino]-10,13-dioxo-9,12-diazatricyclo[13.3.1.12,6]icosa-1(18),2(20),3,5,15(19),16-hexaene-8-carboxamide]
MIC [1]: 0.5 µM
MIC [2]: 0.047 µM

Cc1nc(-n2ccc(C(C)(C)C)cc2=O)nc(C)c1C(=O)N[C@@H](CCN)C(=O)N(C)[C@@H]1C(=O)N[C@@H](C)C(=O)N[C@H](C(=O)NCC#N)Cc2ccc(OCCN)c(c2)-c2cc1ccc2OCCN (racemic) [Compound 319, rac-(8S,11S,14S)-3,18-bis(2-aminoethoxy)-N-(cyanomethyl)-11-methyl-14-[methyl-[rac-(2S)-4-amino-2-[[2-(4-tert-butyl-2-oxo-1-pyridyl)-4,6-dimethyl-pyrimidine-5-carbonyl]amino]butanoyl]amino]-10,13-dioxo-9,12-diazatricyclo[13.3.1.12,6]icosa-1(18),2(20),3,5,15(19),16-hexaene-8-carboxamide]
MIC [1]: 8 µM
MIC [2]: 1 µM

Cc1nc(-c2ccc(N3CCC(C(C)(C)C)CC3)cc2)nc(C)c1C(=O)N[C@@H](CCN)C(=O)N(C)[C@@H]1C(=O)N[C@@H](C)C(=O)N[C@H](C(=O)NCC#N)Cc2ccc(OCCN)c(c2)-c2cc1ccc2OCCN (racemic) [Compound 320, rac-(8S,11S,14S)-3,18-bis(2-aminoethoxy)-N-(cyanomethyl)-11-methyl-14-[methyl-[rac-(2S)-4-amino-2-[[2-[4-(4-tert-butyl-1-piperidyl)phenyl]-4,6-dimethyl-pyrimidine-5-carbonyl]amino]butanoyl]amino]-10,13-dioxo-9,12-diazatricyclo[13.3.1.12,6]icosa-1(18),2(20),3,5,15(19),16-hexaene-8-carboxamide]
MIC [1]: 0.19 µM
MIC [2]: 0.016 µM

Cc1nc(-c2ccc(N3CCCC3)cc2)nc(C)c1C(=O)N[C@@H](CCN)C(=O)N(C)[C@@H]1C(=O)N[C@@H](C)C(=O)N[C@H](C(=O)NCC#N)Cc2ccc(OCCN)c(c2)-c2cc1ccc2OCCN (racemic) [Compound 321, rac-(8S,11S,14S)-3,18-bis(2-aminoethoxy)-N-(cyanomethyl)-11-methyl-14-[methyl-[rac-(2S)-4-amino-2-[[4,6-dimethyl-2-(4-pyrrolidin-1-ylphenyl)pyrimidine-5-carbonyl]amino]butanoyl]amino]-10,13-dioxo-9,12-diazatricyclo[13.3.1.12,6]icosa-1(18),2(20),3,5,15(19),16-hexaene-8-carboxamide]
MIC [1]: 0.38 µM
MIC [2]: 0.047 µM

Cc1nc(-c2ccc(N3CCC(F)(F)CC3)cc2)nc(C)c1C(=O)N[C@@H](CCN)C(=O)N(C)[C@@H]1C(=O)N[C@@H](C)C(=O)N[C@H](C(=O)NCC#N)Cc2ccc(OCCN)c(c2)-c2cc1ccc2OCCN (racemic) [Compound 322, rac-(8S,11S,14S)-3,18-bis(2-aminoethoxy)-N-(cyanomethyl)-11-methyl-14-[methyl-[rac-(2S)-4-amino-2-[[2-[4-(4,4-difluoro-1-piperidyl)phenyl]-4,6-dimethyl-pyrimidine-5-carbonyl]amino]butanoyl]amino]-10,13-dioxo-9,12-diazatricyclo[13.3.1.12,6]icosa-1(18),2(20),3,5,15(19),16-hexaene-8-carboxamide]
MIC [1]: 0.6 µM
MIC [2]: 0.15 µM

Cc1nc(-c2ccc(N3CCC3)cc2)nc(C)c1C(=O)N[C@@H](CCN)C(=O)N(C)[C@@H]1C(=O)N[C@@H](C)C(=O)N[C@H](C(=O)NCC#N)Cc2ccc(OCCN)c(c2)-c2cc1ccc2OCCN (racemic) [Compound 323, rac-(8S,11S,14S)-3,18-bis(2-aminoethoxy)-N-(cyanomethyl)-11-methyl-14-[methyl-[rac-(2S)-4-amino-2-[[2-[4-(azetidin-1-yl)phenyl]-4,6-dimethyl-pyrimidine-5-carbonyl]amino]butanoyl]amino]-10,13-dioxo-9,12-diazatricyclo[13.3.1.12,6]icosa-1(18),2(20),3,5,15(19),16-hexaene-8-carboxamide]
MIC [1]: 1 µM
MIC [2]: 0.38 µM

Cc1nc(-c2ccc(N3CCCCC3)cc2)nc(C)c1C(=O)N[C@@H](CCN)C(=O)N(C)[C@@H]1C(=O)N[C@@H](C)C(=O)N[C@H](C(=O)NCC#N)Cc2ccc(OCCN)c(c2)-c2cc1ccc2OCCN (racemic) [Compound 324, rac-(8S,11S,14S)-3,18-bis(2-aminoethoxy)-N-(cyanomethyl)-11-methyl-14-[methyl-[rac-(2S)-4-amino-2-[[4,6-dimethyl-2-[4-(1-piperidyl)phenyl]pyrimidine-5-carbonyl]amino]butanoyl]amino]-10,13-dioxo-9,12-diazatricyclo[13.3.1.12,6]icosa-1(18),2(20),3,5,15(19),16-hexaene-8-carboxamide]
MIC [1]: 0.13 µM
MIC [2]: 0.047 µM

Cc1nc(-c2ccc(N3CCCCCC3)cc2)nc(C)c1C(=O)N[C@@H](CCN)C(=O)N(C)[C@@H]1C(=O)N[C@@H](C)C(=O)N[C@H](C(=O)NCC#N)Cc2ccc(OCCN)c(c2)-c2cc1ccc2OCCN (racemic) [Compound 325, rac-(8S,11S,14S)-3,18-bis(2-aminoethoxy)-N-(cyanomethyl)-11-methyl-14-[methyl-[rac-(2S)-4-amino-2-[[2-[4-(azepan-1-yl)phenyl]-4,6-dimethyl-pyrimidine-5-carbonyl]amino]butanoyl]amino]-10,13-dioxo-9,12-diazatricyclo[13.3.1.12,6]icosa-1(18),2(20),3,5,15(19),16-hexaene-8-carboxamide]
MIC [1]: 0.13 µM
MIC [2]: 0.016 µM

Cc1nc(-c2ccc(N3CCCCCCC3)cc2)nc(C)c1C(=O)N[C@@H](CCN)C(=O)N(C)[C@@H]1C(=O)N[C@@H](C)C(=O)N[C@H](C(=O)NCC#N)Cc2ccc(OCCN)c(c2)-c2cc1ccc2OCCN (racemic) [Compound 326, rac-(8S,11S,14S)-3,18-bis(2-aminoethoxy)-N-(cyanomethyl)-11-methyl-14-[methyl-[rac-(2S)-4-amino-2-[[2-[4-(azocan-1-yl)phenyl]-4,6-dimethyl-pyrimidine-5-carbonyl]amino]butanoyl]amino]-10,13-dioxo-9,12-diazatricyclo[13.3.1.12,6]icosa-1(18),2(20),3,5,15(19),16-hexaene-8-carboxamide]
MIC [1]: 0.13 µM
MIC [2]: 0.031 µM

CCCCCOc1ccc(-c2nc(C)c(C(=O)N[C@@H](CCN)C(=O)N(C)[C@@H]3C(=O)N[C@@H](C)C(=O)N[C@H](C(=O)NCC#N)Cc4ccc(OCCN)c(c4)-c4cc3ccc4OCCN)c(C)n2)cc1 (racemic) [Compound 328, rac-(8S,11S,14S)-3,18-bis(2-aminoethoxy)-N-(cyanomethyl)-11-methyl-14-[methyl-[rac-(2S)-4-amino-2-[[4,6-dimethyl-2-(4-pentoxyphenyl)pyrimidine-5-carbonyl]amino]butanoyl]amino]-10,13-dioxo-9,12-diazatricyclo[13.3.1.12,6]icosa-1(18),2(20),3,5,15(19),16-hexaene-8-carboxamide]
MIC [1]: 0.07 µM
MIC [2]: 0.0093 µM

Cc1nc(-c2ccc(OCCC(C)C)cc2)nc(C)c1C(=O)N[C@@H](CCN)C(=O)N(C)[C@@H]1C(=O)N[C@@H](C)C(=O)N[C@H](C(=O)NCC#N)Cc2ccc(OCCN)c(c2)-c2cc1ccc2OCCN (racemic) [Compound 329, rac-(8S,11S,14S)-3,18-bis(2-aminoethoxy)-N-(cyanomethyl)-11-methyl-14-[methyl-[rac-(2S)-4-amino-2-[[2-(4-isopentyloxyphenyl)-4,6-dimethyl-pyrimidine-5-carbonyl]amino]butanoyl]amino]-10,13-dioxo-9,12-diazatricyclo[13.3.1.12,6]icosa-1(18),2(20),3,5,15(19),16-hexaene-8-carboxamide]
MIC [1]: 0.11 µM
MIC [2]: 0.011 µM

CCCOc1ccc(-c2nc(C)c(C(=O)N[C@@H](CCN)C(=O)N(C)[C@@H]3C(=O)N[C@@H](C)C(=O)N[C@H](C(=O)NCC#N)Cc4ccc(OCCN)c(c4)-c4cc3ccc4OCCN)c(C)n2)cc1 (racemic) [Compound 330, rac-(8S,11S,14S)-3,18-bis(2-aminoethoxy)-N-(cyanomethyl)-11-methyl-14-[methyl-[rac-(2S)-4-amino-2-[[4,6-dimethyl-2-(4-propoxyphenyl)pyrimidine-5-carbonyl]amino]butanoyl]amino]-10,13-dioxo-9,12-diazatricyclo[13.3.1.12,6]icosa-1(18),2(20),3,5,15(19),16-hexaene-8-carboxamide]
MIC [1]: 0.26 µM
MIC [2]: 0.033 µM

CCCCOc1ccc(-c2nc(C)c(C(=O)N[C@@H](CCN)C(=O)N(C)[C@@H]3C(=O)N[C@@H](C)C(=O)N[C@H](C(=O)NCC#N)Cc4ccc(OCCN)c(c4)-c4cc3ccc4OCCN)c(C)n2)cc1 (racemic) [Compound 331, rac-(8S,11S,14S)-3,18-bis(2-aminoethoxy)-N-(cyanomethyl)-11-methyl-14-[methyl-[rac-(2S)-4-amino-2-[[2-(4-butoxyphenyl)-4,6-dimethyl-pyrimidine-5-carbonyl]amino]butanoyl]amino]-10,13-dioxo-9,12-diazatricyclo[13.3.1.12,6]icosa-1(18),2(20),3,5,15(19),16-hexaene-8-carboxamide]
MIC [1]: 0.13 µM
MIC [2]: 0.0081 µM
